# Laboratory results: US8816085B2 (Takeda GmbH, priority 2009, dated 2014)
# Biological target: T1, PDE5A1 (human PDE5 from platelets) (Homo sapiens, UniProt O76074)
# T1 construct: from tissue; host or cells: platelets from fresh blood of human donors (10,000 g supernatant of sonified platelets)
# Assay: Inhibition of type 5 phosphodiesterase (PDE5) activity, modified SPA test
# Format: biochemical
# Conditions: PDE5-containing human platelet lysate, 0.5 μM cGMP, value classes, read-out: PDE5A1 inhibitory values [measured as −logIC50 (mol/l)] (converted)
# Description: Method for Measuring Inhibition of the Type 5 Phosphodiesterase (PDE5) Activity:
# As a source for human PDE5, platelets are used. For that purpose, 150 ml fresh blood from human donors anticoagulated with citrate [final concentration 0.3% (w/v)] is centrifuged at 200 g for 10 min to obtain the so-called platelet-rich-plasma (PRP) as a supernatant. 1/10 volume of ACD solution (85 mM Na3-citrate, 111 mM D-glucose, 71 mM citric acid, pH 4.4) is added to 9/10 volume of PRP. After centrifugation (1,400 g, 10 min) the cell pellet is resuspended in 3 ml homogenization buffer (NaCl 140 mM, KCl 3.8 mM, EGTA (ethylene glycol tetraacetic acid) 1 mM, MgCl2 1 mM, Tris-HCl 20 mM, beta-mercaptoethanol 1 mM, pH 8.2) plus protease-inhibitor mix giving rise to the final concentrations of 0.5 mM Pefablock (Roche), 10 μM Leupeptin, 5 μM Trypsininhibitor, 2 mM Benzamidin and 10 μM Pepstatin A. The suspension is sonified and thereafter centrifuged for 15 min at 10,000 g. The resulting supernatant (platelet lysate) is used for enzymatic testings.
# PDE5A1 activity is inhibited by the compounds of the present subject matter in a modified SPA (scintillation proximity assay) test, supplied by Amersham Biosciences (see procedural instructions “phosphodiesterase [3H]cAMP SPA enzyme assay, code TRKQ 7090”), carried out in 96-well microtitre plates (MTP's). The test volume is 100 μl and contains 20 mM Tris buffer (pH 7.4), 0.1 mg of BSA (bovine serum albumin)/ml, 5 mM Mg^2+, 1 μM motapizone, 10 nM PDE2 inhibitor 2-(3,4-dimethoxybenzyl)-7-[(1R,2R)-2-hydroxy-1-(2-phenylethyl)propyl]-5-methylimidazo[5,1-t][1,2,4]triazin-4(3H)-one, 0.5 μM cGMP (cyclic guanosine monophosphate) (including about 50,000 cpm of [3H]cGMP as a tracer), 1 μl of the respective compound dilution in dimethylsulfoxide (DMSO) and sufficient PDE5-containing platelet lysat (10,000×g supernatant, see above) to ensure that 10-20 wt % of the cGMP is converted under the said experimental conditions. […] After a preincubation of 5 min at 37° C., the reaction is started by adding the substrate (cGMP) and the assay is incubated for a further 15 min; after that, it is stopped by adding SPA beads (50 μl). In accordance with the manufacturer's instructions, the SPA beads had previously been resuspended in water, but are then diluted 1:3 (v/v) in water; the diluted solution also contains 3 mM 8-methoxymethyl-3-isobutyl-1-methylxanthine (IBMX) to ensure a complete PDE activity stop. After the beads have been sedimented (>30 min), the MTP's are analyzed in commercially available luminescence detection devices. The corresponding IC50 values of the compounds for the inhibition of PDE activity are determined from the concentration-effect curves by means of non-linear regression.
row,IC50,Compound
1,1 to 10 nM,"COc1ccc(OCC2CC2)c(-c2ccnc3c(C(=O)NC4CN(C(=O)C(C)O)CC4O)c(C)[nH]c23)c1 (mixture of isomers) [Example F33, Diastereomeric mixture of 7-[2-(Cyclopropylmethoxy)-5-methoxyphenyl]-N-{(3R*,4R*)-4-hydroxy-1-[(2S)-2-hydroxypropanoyl]pyrrolidin-3-yl}-2-methyl-1H-pyrrolo[3,2-b]pyridine-3-carboxamide and Diastereomeric mixture of 7-[2-(cyclopropylmethoxy)-5-methoxyphenyl]-N-{(3S*,4S*)-4-hydroxy-1-[(2S)-2-hydroxypropanoyl]pyrrolidin-3-yl}-2-methyl-1H-pyrrolo[3,2-b]pyridine-3-carboxamide]"
2,1 to 10 nM,"Cc1[nH]c2c(-c3cc(F)ccc3OCC3CC3)ccnc2c1C(=O)N[C@@H]1CCN(C(=O)CO)C[C@H]1O (relative stereo) [Example F18, 7-[2-(Cyclopropylmethoxy)-5-fluorophenyl]-N-[rel.(3R,4R)-3-hydroxy-1-(hydroxyacetyl)piperidin-4-yl]-2-methyl-1H-pyrrolo[3,2-b]pyridine-3-carboxamide]"
3,1 to 10 nM,"COc1ccc(OCC2CC2)c(-c2ccnc3c(C(=O)N[C@@H]4CN(C(=O)CO)C[C@H]4O)c(C)[nH]c23)c1 (relative stereo) [Example F32, 7-[2-(Cyclopropylmethoxy)-5-methoxyphenyl]-N-[(3R*,4R*)-4-hydroxy-1-(hydroxyacetyl)pyrrolidin-3-yl]-2-methyl-1H-pyrrolo[3,2-b]pyridine-3-carboxamide]"
4,< 1 nM,"COc1cc(-c2ccnc3c(C(=O)N[C@@H]4CN(C(=O)CO)C[C@H]4O)c(C)[nH]c23)c(OCC2CC2)cc1F (relative stereo) [Example F46, 7-[2-(Cyclopropylmethoxy)-4-fluoro-5-methoxyphenyl]-N-[(3R*,4R*)-4-hydroxy-1-(hydroxyacetyl)pyrrolidin-3-yl]-2-methyl-1H-pyrrolo[3,2-b]pyridine-3-carboxamide]"
5,< 1 nM,"COc1cc(-c2ccnc3c(C(=O)N[C@@H]4CCN(C(=O)CO)C[C@H]4O)c(C)[nH]c23)c(OCC2CC2)cc1F (relative stereo) [Example F48, 7-[2-(Cyclopropylmethoxy)-4-fluoro-5-methoxyphenyl]-N-[(3R*,4R*)-3-hydroxy-1-(hydroxyacetyl)piperidin-4-yl]-2-methyl-1H-pyrrolo[3,2-b]pyridine-3-carboxamide]"

# Continued, compound first:
row,Compound,IC50
1,"CC(=O)N1CC[C@@H](NC(=O)c2c(C)[nH]c3c(-c4cc(F)ccc4OCC4CC4)ccnc23)[C@H](O)C1 (relative stereo) [Example E28, N-[(3R*,4R*)-1-Acetyl-3-hydroxypiperidin-4-yl]-7-[2-(cyclopropylmethoxy)-5-fluorophenyl]-2-methyl-1H-pyrrolo[3,2-b]pyridine-3-carboxamide]",1 to 10 nM
2,"CCC(=O)N1CC[C@@H](NC(=O)c2c(C)[nH]c3c(-c4cc(F)ccc4OCC4CC4)ccnc23)[C@H](O)C1 (relative stereo) [Example E29, 7-[2-(Cyclopropylmethoxy)-5-fluorophenyl]-N-[(3R*,4R*)-3-hydroxy-1-propanoylpiperidin-4-yl]-2-methyl-1H-pyrrolo[3,2-b]pyridine-3-carboxamide]",1 to 10 nM
3,"COCC(=O)N1CC[C@@H](NC(=O)c2c(C)[nH]c3c(-c4cc(F)ccc4OCC4CC4)ccnc23)[C@H](O)C1 (relative stereo) [Example E30, 7-[2-(Cyclopropylmethoxy)-5-fluorophenyl]-N-[(3R*,4R*)-3-hydroxy-1-(methoxyacetyl)piperidin-4-yl]-2-methyl-1H-pyrrolo[3,2-b]pyridine-3-carboxamide]",1 to 10 nM
4,"COc1ccc(OCC2CC2)c(-c2ccnc3c(C(=O)N[C@@H]4CN(C(C)=O)C[C@H]4O)c(C)[nH]c23)c1 (relative stereo) [Example E49, N-[(3R*,4R*)-1-Acetyl-4-hydroxypyrrolidin-3-yl]-7-[2-(cyclopropylmethoxy)-5-methoxyphenyl]-2-methyl-1H-pyrrolo[3,2-b]pyridine-3-carboxamide]",1 to 10 nM
5,"CCC(=O)N1C[C@@H](O)[C@H](NC(=O)c2c(C)[nH]c3c(-c4cc(OC)ccc4OCC4CC4)ccnc23)C1 (relative stereo) [Example E50, 7-[2-(Cyclopropylmethoxy)-5-methoxyphenyl]-N-[(3R*,4R*)-4-hydroxy-1-propanoylpyrrolidin-3-yl]-2-methyl-1H-pyrrolo[3,2-b]pyridine-3-carboxamide]",1 to 10 nM
6,"COCC(=O)N1C[C@@H](O)[C@H](NC(=O)c2c(C)[nH]c3c(-c4cc(OC)ccc4OCC4CC4)ccnc23)C1 (relative stereo) [Example E51, 7-[2-(Cyclopropylmethoxy)-5-methoxyphenyl]-N-[(3R*,4R*)-4-hydroxy-1-(methoxyacetyl)pyrrolidin-3-yl]-2-methyl-1H-pyrrolo[3,2-b]pyridine-3-carboxamide]",1 to 10 nM
7,"COc1cc(-c2ccnc3c(C(=O)N[C@@H]4CN(C(C)=O)C[C@H]4O)c(C)[nH]c23)c(OCC2CC2)cc1F (relative stereo) [Example E70, N-[(3R*,4R*)-1-Acetyl-4-hydroxypyrrolidin-3-yl]-7-[2-(cyclopropylmethoxy)-4-fluoro-5-methoxyphenyl]-2-methyl-1H-pyrrolo[3,2-b]pyridine-3-carboxamide]",< 1 nM
8,"CCC(=O)N1C[C@@H](O)[C@H](NC(=O)c2c(C)[nH]c3c(-c4cc(OC)c(F)cc4OCC4CC4)ccnc23)C1 (relative stereo) [Example E71, 7-[2-(Cyclopropylmethoxy)-4-fluoro-5-methoxyphenyl]-N-[(3R*,4R*)-4-hydroxy-1-propanoylpyrrolidin-3-yl]-2-methyl-1H-pyrrolo[3,2-b]pyridine-3-carboxamide]",< 1 nM
9,"COCC(=O)N1C[C@@H](O)[C@H](NC(=O)c2c(C)[nH]c3c(-c4cc(OC)c(F)cc4OCC4CC4)ccnc23)C1 (relative stereo) [Example E72, 7-[2-(Cyclopropylmethoxy)-4-fluoro-5-methoxyphenyl]-N-[(3R*,4R*)-4-hydroxy-1-(methoxyacetyl)pyrrolidin-3-yl]-2-methyl-1H-pyrrolo[3,2-b]pyridine-3-carboxamide]",< 1 nM
10,"COc1cc(-c2ccnc3c(C(=O)N[C@@H]4CCN(C(C)=O)C[C@H]4O)c(C)[nH]c23)c(OCC2CC2)cc1F (relative stereo) [Example E73, N-[(3R*,4R*)-1-Acetyl-3-hydroxypiperidin-4-yl]-7-[2-(cyclopropylmethoxy)-4-fluoro-5-methoxyphenyl]-2-methyl-1H-pyrrolo[3,2-b]pyridine-3-carboxamide]",< 1 nM
11,"CCC(=O)N1CC[C@@H](NC(=O)c2c(C)[nH]c3c(-c4cc(OC)c(F)cc4OCC4CC4)ccnc23)[C@H](O)C1 (relative stereo) [Example E74, 7-[2-(Cyclopropylmethoxy)-4-fluoro-5-methoxyphenyl]-N-[(3R*,4R*)-3-hydroxy-1-propanoylpiperidin-4-yl]-2-methyl-1H-pyrrolo[3,2-b]pyridine-3-carboxamide]",< 1 nM
12,"COCC(=O)N1CC[C@@H](NC(=O)c2c(C)[nH]c3c(-c4cc(OC)c(F)cc4OCC4CC4)ccnc23)[C@H](O)C1 (relative stereo) [Example E75, 7-[2-(Cyclopropylmethoxy)-4-fluoro-5-methoxyphenyl]-N-[(3R*,4R*)-3-hydroxy-1-(methoxyacetyl)piperidin-4-yl]-2-methyl-1H-pyrrolo[3,2-b]pyridine-3-carboxamide]",< 1 nM
13,"COCC(=O)N1CCC(NC(=O)c2c(C)[nH]c3c(-c4c(OCC5CC5)ccc5c4OCO5)ccnc23)CC1 [Example E03, 7-[5-(Cyclopropylmethoxy)-1,3-benzodioxol-4-yl]-N-[1-(methoxyacetyl)piperidin-4-yl]-2-methyl-1H-pyrrolo[3,2-b]pyridine-3-carboxamide]",< 1 nM
14,"CCOC(=O)N1CCC(NC(=O)c2c(C)[nH]c3c(-c4c(OCC5CC5)ccc5c4OCO5)ccnc23)CC1 [Example E04, Ethyl 4-[({7-[5-(cyclopropylmethoxy)-1,3-benzodioxol-4-yl]-2-methyl-1H-pyrrolo[3,2-b]pyridin-3-yl}carbonyl)amino]piperidine-1-carboxylate]",< 1 nM
